Experimental findings from patent US8513234B2, “HIV integrase inhibitors” (Merck Sharp & Dohme Corp., priority 2008, dated 2013) are described below.

The subject of series [1] is virus containing G140S/Q148H mutation in the integrase gene. Conditions: k = IC50(mutant)/IC50(wild type). Here is the method:
(§1) An assay for measuring the inhibition of acute HIV infection with HeLa P4-2 cells in a single cycle infectivity assay was conducted using methods described in Joyce et al., J. Biol. Chem. 2002, 277: 45811, Hazuda et al., Science 2000, 287: 646, and Kimpton et al, J. Virol. 1992, 66: 2232. Proviral plasmids encoding viruses containing specific mutations in the integrase gene (N155H, Q148R, Y143R, E92Q, or G140S/Q148H) were generated by site-directed mutagenesis, and viruses were produced by transfecting 293T cells with the appropriate proviral plasmids.

In series [2] the test system is virus containing N155H mutation in the integrase gene. Conditions: k = IC50(mutant)/IC50(wild type). As for the experimental part:
as §1

In series [3] the test system is virus containing Y143R mutation in the integrase gene. Conditions: k = IC50(mutant)/IC50(wild type). As for the experimental part:
as §1

Series [4] relates to virus containing E92Q mutation in the integrase gene. Conditions: k = IC50(mutant)/IC50(wild type). As for the experimental part:
as §1

For series [5], the system named is virus containing Q148R mutation in the integrase gene. Conditions: k = IC50(mutant)/IC50(wild type). Here is the method: as §1
The target in series [6] is T1, recombinant integrase (HIV-1 integrase) (Human immunodeficiency virus type 1 group M subtype B, UniProt P04585).
T1 construct: Assays for the strand transfer activity of integrase were conducted in accordance with WO 02/30930 for recombinant integrase
Nature of the series: HIV-1 integrase assay: strand transfer catalyzed by recombinant integrase. It counts as biochemical. Conditions: strand transfer activity, read-out: IC50. As for the experimental part:
HIV-1 Integrase Assay: Strand Transfer Catalyzed by Recombinant Integrase
Assays for the strand transfer activity of integrase were conducted in accordance with WO 02/30930 for recombinant integrase. […] For example, the compounds prepared in Examples 1 to 5 were tested in the integrase assay and found to have the IC50 values in Table B. (Compounds 6A and 6B were not tested in this assay.)
Further description on conducting the assay using preassembled complexes is found in Wolfe, A. L. et al., J. Virol. 1996, 70: 1424-1432, Hazuda et al., J. Virol. 1997, 71: 7005-7011; Hazuda et al., Drug Design and Discovery 1997, 15: 17-24; and Hazuda et al., Science 2000, 287: 646-650.

In the next series the test system is wild type IIIB. As to the kind of experiment: Single cycle infectivity assay in HeLa P4-2 cells, wild type virus. It counts as cell-based, HIV. Conditions: Human immunodeficiency virus 1, IIIB, HeLaP4-2, HeLa P4-2 cells, single cycle infectivity, wild type IIIB; read-out: wild type IIIB IC50.
Another series relates to HIV-1. Nature of the series: Inhibition of acute HIV-1 infection of T-lymphoid cells (spread assay). It counts as cell-based. As for the experimental part: Assay for Inhibition of HIV-1 Replication
Assays for the inhibition of acute HIV-1 infection of T-lymphoid cells were conducted in accordance with Vacca, J. P. et al, Proc. Natl. Acad. Sci. USA 1994, 91: 4096.

`CC[C@H]1COC[C@@H](N(C)C(=O)C(=O)N(C)C)c2nc(C(=O)NCc3ccc(F)cc3)c(O)c(=O)n21` [Compound 5A, N-((6S,10S)-6-ethyl-2-{[(4-fluorobenzyl)amino]carbonyl}-3-hydroxy-4-oxo-6,7,9,10-tetrahydro-4-pyrimido[1,2-][1,4]oxazepin-10-yl)-N N′N′-trimethylethanediamide]: in series [1], the “Number of fold shift in IC50 versus wild type IIIB, G140S/Q148H” value was 4. Moreover, the “Number of fold shift in IC50 versus wild type IIIB, N155H” value in series [2] is 1. Also, the “Number of fold shift in IC50 versus wild type IIIB, Y143R” value in series [3] is recorded as 1. Further, the “Number of fold shift in IC50 versus wild type IIIB, E92Q” value in series [4] was determined as 2. Further, in series [5], the “Number of fold shift in IC50 versus wild type IIIB, Q148R” value is on record as 1. The IC50 amounted to 46 nM in series [6] and 28 nM in the series with wild type IIIB. Also, the “IC95 (nM) in the presence of 10% FBS” value in the series on HIV-1 was determined as 12 nM.

Regarding `CC[C@H]1COC[C@H](N(C)C(=O)C(=O)N(C)C)c2nc(C(=O)NCc3ccc(F)cc3)c(O)c(=O)n21` [Compound 5B], the “Number of fold shift in IC50 versus wild type IIIB, G140S/Q148H” value in series [1] was found to be 11. Besides, the “Number of fold shift in IC50 versus wild type IIIB, N155H” value in series [2] came to 3. Moreover, the “Number of fold shift in IC50 versus wild type IIIB, Y143R” value in series [3] is 2. Also, in series [4], the “Number of fold shift in IC50 versus wild type IIIB, E92Q” value is listed as 1. For the same compound, the “Number of fold shift in IC50 versus wild type IIIB, Q148R” value in series [5] is reported as 1. The IC50 in series [6] was 40 nM; in the series on wild type IIIB it was 42 nM. In addition, the “IC95 (nM) in the presence of 10% FBS” value in the series with HIV-1 is reported as 10 nM.

Usually IC50 stands for the concentration needed to halve the response being measured.
